# According to paper PMC6611227 (Frontiers in Microbiology, 2019):
# Where two headings read alike, the source gives them in different places.
# Experiments:
# [1] = molecular target: T1, PiDHODH (dihydroorotate dehydrogenase) (Phytophthora infestans, UniProt D0MUE3); experiment: biochemical
# T1 construct: gene PITG_01913
# [2] = molecular target: T1, PiDHODH (dihydroorotate dehydrogenase); experiment: biochemical; conditions: read-out: Activity % PiDHODH
# [3] = test system: O=C1C[C@@H](C(=O)O)NC(=O)N1; experiment: purified protein
# [4] = substrate: O=C1C[C@@H](C(=O)O)NC(=O)N1; experiment: purified protein; conditions: FMN orotate/dihydroorotate site in the α/β-barrel domain
# T1 sequence (D0MUE3 55-424 limits assumed): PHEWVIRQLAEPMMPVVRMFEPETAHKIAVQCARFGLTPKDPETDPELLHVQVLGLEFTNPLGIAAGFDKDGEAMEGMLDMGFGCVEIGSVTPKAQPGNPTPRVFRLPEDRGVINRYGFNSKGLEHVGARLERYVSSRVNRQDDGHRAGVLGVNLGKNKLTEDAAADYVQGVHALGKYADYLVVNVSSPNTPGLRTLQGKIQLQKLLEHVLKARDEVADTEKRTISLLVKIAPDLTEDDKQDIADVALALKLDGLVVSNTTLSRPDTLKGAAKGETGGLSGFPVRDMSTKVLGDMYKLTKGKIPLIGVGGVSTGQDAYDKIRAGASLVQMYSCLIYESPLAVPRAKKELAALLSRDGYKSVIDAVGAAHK
molecule,measurement,setting,value
C/C(O)=C(\C#N)C(=O)Nc1ccc(C(F)(F)F)cc1 [A77 1726],IC50,[1],79 ± 8 µM
"Cc1cc(Nc2cc(F)c(C(F)(F)F)c(F)c2)n2ncnc2n1 [DSM190, N-(3,5-difluoro-4-(trifluoromethyl)phenyl)-5-methyl-[1,2,4]triazolo[1,5-a]pyrimidin-7-amine]",activity at 500 µM,[2],36 ± 10%
COc1cc(-c2ccc(Nc3ccccc3C(=O)O)c(OC)c2)ccc1Nc1ccccc1C(=O)O [Redoxal],activity at 500 µM,[2],31 ± 8%
"O=C(O)C1=C(C(=O)Nc2ccc(-c3ccccc3)cc2)CCC1 [compound 1, 2-(4-biphenylylcarbamoyl)-1-cyclopentene-1-carboxylic acid]",activity at 500 µM,[2],23 ± 4%
"COc1c(-c2ccccc2)ccc(NC(=O)C(C#N)=C(C)O)c1Cl [compound 19, N-(3-chloro-2-methoxybiphenyl-4-yl)-2-cyano-3-hydroxybut-2-enamide]",activity at 500 µM,[2],2 ± 0.5%
"CC(O)=C(C#N)C(=O)Nc1ccc(-c2ccccc2)cc1Cl [compound 28, N-(3-chlorobiphenyl-4-yl)-2-cyano-3-hydroxybut-2-enamide]",activity at 500 µM,[2],1 ± 0.7%
O=C1C(O)=C(CC=C(Cl)Cl)C(=O)c2ccccc21 [dichloroallyl lawsone],activity at 500 µM,[2],30 ± 2%
PiDHODH (dihydroorotate dehydrogenase) (Phytophthora infestans T30-4),Km,[3],57 ± 3 µM
StDHODH (dihydroorotate dehydrogenase) (Solanum tuberosum; I273V/I299V/P120T/P359Q) (protein) ASTVDEATFCGWLFSATKLVNPFFAFLDPEVAHRLAVSAAARGWVPREKRTDLPILGLDVWGRRFSNPVGLAAGFDKNAEAVEGLLGLGFGFVEVGSVTPIPQEGNPKPRIFRLPNEGALINRCGFNSEGIVAVAKRLGAQHGKRKLETSSTSSPAGDEVKHGGKAGPGILGVNLGKNKTSEDAAADYVQGVHTLSQYADYLVVNISSPNTPGLRQLQGRKQLKDLVKKVQAARDEMQWGEEGPPPLLVKIAPDLSKQDLEDIAAVALALRVDGLIISNTTIQRPDSVSQNPVAQETGGLSGKPLFNMSTNILKEMYLLTKGRIPLIGCGGISSGEDAYKKIRAGATLVQLYTAFGYGGPALIPNIKAELAHCLEKDGYKSVHEAVGADCR,Km,[4],20 ± 1 µM
